Measured values taken from patent US20120251448A1, “Compounds for Use in the Detection of Neurodegenerative Diseases” (priority 2011, published 2012).

What follows are compounds tested on amyloid-β peptide of Alzheimer's disease (assay: binding affinity for amyloid-β peptide (data not shown)). Settings: not given.

**Q.** `Oc1ccc(-c2cnc(-c3ccc(O)c(O)c3)s2)cc1O` [SA-64] was tested. Which “binding affinity for the amyloid-β peptide” value did it give?
**A.** The value was “does not show significant binding affinity”.

These compounds were tested against α-synuclein aggregates (Homo sapiens, UniProt P37840) (assay: in vitro competition binding assay with [3H] positive reference compound #1 on α-synuclein aggregates). Settings: not given.
Experimental: In order to assess relative binding affinities of the test compounds for aggregated α-synuclein, competition assays were set up with a radiolabeled molecule already known to bind to α-synuclein fibrils and non-radiolabeled test compounds. In order to induce its aggregation, α-synuclein was incubated in phosphate buffered saline (PBS, pH 7.4) at 37° C. for three days with shaking (1,400 rpm). Competitive binding assays were carried out in 12×75 mm borosilicate glass tubes. […] The mixture was incubated for 120 min at 37° C., and the bound and the free radioactivity were separated by vacuum filtration through Whatman GF/B filters using a Brandel M-24R cell harvester, followed by washing with PBS buffer three times. […] IC50 values were determined by a non-linear, least squares regression analysis.

**Q.** How did the Ki turn out when `Oc1ccc(-c2nnc(-c3cc(O)c(O)cc3Br)o2)cc1O` [SA-55] was run?
**A.** The Ki was 370 nM.

**Q.** How did the Ki turn out when `Oc1ccc(-c2cnc(-c3ccc(O)c(O)c3)s2)cc1O` [SA-64] was run?
**A.** The Ki was 89 nM.

Same assay, conditions: competition against [3H] positive reference compound #1 (100-200 nM), 120 min at 37° C., PBS; Ki by Cheng-Prusoff from IC50

**Q.** Which Ki does the source give for `Oc1ccc(-c2cn(-c3ccc(O)c(O)c3)nn2)cc1O` [SA-68] here?
**A.** Its Ki is 697 nM.

**Q.** For `Oc1ccc(-c2nc3cc(O)c(O)cc3o2)cc1O` [SA-54], which Ki is on record?
**A.** The Ki was 1640 nM.

**Q.** Which Ki does the source give for `Oc1ccc(-c2nsc(-c3ccc(O)c(O)c3)n2)cc1O` [SA-57] here?
**A.** Its Ki is 124 nM.

**Q.** How did the Ki turn out when `Oc1ccc(-c2cnc(-c3ccc(O)c(O)c3)o2)cc1O` [SA-70] was run?
**A.** Its Ki is 659 nM.

**Q.** With `Oc1ccc(-c2nnc(-c3ccc(O)c(O)c3)o2)cc1O` [SA-67] as the compound, how does the Ki read?
**A.** The Ki was 466 nM.

**Q.** For `Oc1ccc(-c2cc(-c3ccc(O)c(O)c3)c(-c3ccc(O)c(O)c3)s2)cc1O` [SA-61], which Ki is on record?
**A.** The Ki was 3100 nM.
